We go through three compounds from patent US20090130273A1, “FREEZE DRIED SUCRALOSE” (TATE & LYLE TECHNOLOGY LIMITED, priority 2007, published 2009).

Each structure is given as a SMILES string.

Series [1] can be described thus: Moisture absorption as a function of relative humidity. Type of series: physicochemical. As to conditions: for moisture absorption behaviour compared with the other samples: RH ramp 0 to 80 % and back down to 20 %. Here is the method: Sucralose beads prepared from seeded and unseeded aqueous sucralose solutions using the liquid nitrogen technique described above were evaluated to determine degree of moisture absorption as a function of relative humidity (% RH). A sample of commercial sucralose needles (“neat” sucralose) was also evaluated in parallel, and the results for these runs are shown in Table 1. Each column represents a ramping up of % RH from zero to 80, followed by ramping back down to 20.

A short description of series [2]: Thermogravimetric analysis, stability at high temperature. The conditions noted are these: mass as a function of time at 90° C. in nitrogen. The format is physicochemical. Here is the method:
Thermogravimetric analysis was performed on commercial, seeded and unseeded samples made as described above in order to assess stability of the products at high temperature. The results are shown in FIGS. 4, 5 and 6, respectively. In each case, the mass of a sample was followed as a function of time at 90° C. in nitrogen, recorded as percent of original mass remaining. The vertical lines represent the point of the mass curve representing the halfway point of mass loss, and thus may be used as a measure of how rapidly decomposition set in. […] This further bears out the fact, noted above in view of the moisture absorption results, that these samples represent three different forms of sucralose.

As for `OCC1O[C@@H](O[C@]2(CCl)O[C@@H](CCl)C(O)C2O)C(O)C(O)[C@H]1Cl` (stereo in doubt) [Not Seeded, 4,1′,6′-trichloro-4,1′,6′-trideoxygalactosucrose], the “Mass Increase (%)” value is reported as 0.00% in series [1] (0 % RH, start of upward ramp); 0.60% in series [1] (20 % RH, ramping back down); 1.09% in series [1] (20 % RH, ramping up); 0.81% in series [1] (30 % RH, ramping back down); 2.21% in series [1] (30 % RH, ramping up); 1.15% in series [1] (40 % RH, ramping back down). The “Mass Increase (%)” value in series [1] (40 % RH, ramping up) came out at 3.41%; in series [1] (50 % RH, ramping back down), 2.01%; in series [1] (50 % RH, ramping up), 4.91%; in series [1] (60 % RH, ramping back down) it was 2.91%; in series [1] (60 % RH, ramping up), 6.21%; in series [1] (70 % RH, ramping back down), 4.11%. Also, the “Mass Increase (%)” value amounted to 6.71% in series [1] (70 % RH, ramping up) and 7.11% in series [1] (80 % RH, top of ramp). Further, the “moisture absorption behaviour compared with the other samples” value in series [1] (listed as unseeded product) is “significantly higher moisture absorption”. Besides, in series [2] (listed as unseeded product), the “onset of decomposition (halfway point of mass loss)” value is recorded as “intermediate between the two”.

`OCC1O[C@@H](O[C@]2(CCl)O[C@@H](CCl)C(O)C2O)C(O)C(O)[C@H]1Cl` (stereo partly drawn) [Neat, 4,1′,6′-trichloro-4,1′,6′-trideoxygalactosucrose, reference compound]: the “Mass Increase (%)” value in series [1] (0 % RH, start of upward ramp) is listed as 0.00%; in series [1] (20 % RH, ramping back down) it was 0.00%; in series [1] (20 % RH, ramping up), 0.00%; in series [1] (30 % RH, ramping back down), 0.00%; in series [1] (30 % RH, ramping up) it was 0.00%; in series [1] (40 % RH, ramping back down), 0.00%. Also, the “Mass Increase (%)” value in series [1] (40 % RH, ramping up) is on record as 0.00%; in series [1] (50 % RH, ramping back down), 0.00%; in series [1] (50 % RH, ramping up), 0.00%; in series [1] (60 % RH, ramping back down) it was 0.00%; in series [1] (60 % RH, ramping up), 0.00%; in series [1] (70 % RH, ramping back down), 0.00%. The “Mass Increase (%)” value in series [1] (70 % RH, ramping up) was 0.00%; in series [1] (80 % RH, top of ramp), 0.10%; in series [1] (80 % RH, top of ramp, listed as neat (commercial) product), 0.1%. Also, the “onset of decomposition (halfway point of mass loss)” value in series [2] (listed as commercial sample) is “earliest to show significant decomposition”.

Regarding `OCC1O[C@@H](O[C@]2(CCl)O[C@@H](CCl)C(O)C2O)C(O)C(O)[C@H]1Cl` (stereo partly drawn) [Seeded, 4,1′,6′-trichloro-4,1′,6′-trideoxygalactosucrose], the “Mass Increase (%)” value in series [1] (0 % RH, start of upward ramp) worked out at 0%; in series [1] (20 % RH, ramping back down) it was 0.02%; in series [1] (20 % RH, ramping up), 0.01%; in series [1] (30 % RH, ramping back down) it was 0.02%; in series [1] (30 % RH, ramping up) it was 0.02%; in series [1] (40 % RH, ramping back down), 0.02%. The “Mass Increase (%)” value in series [1] (40 % RH, ramping up) is given as 0.02%; in series [1] (50 % RH, ramping back down) it was 0.03%; in series [1] (50 % RH, ramping up) it was 0.02%; in series [1] (60 % RH, ramping back down), 0.03%; in series [1] (60 % RH, ramping up), 0.03%; in series [1] (70 % RH, ramping back down), 0.04%. The “Mass Increase (%)” value in series [1] (70 % RH, ramping up) came out at 0.03%; in series [1] (80 % RH, top of ramp), 0.04%. In addition, the “moisture absorption behaviour compared with the other samples” value in series [1] (listed as seeded product) is on record as “maximum value was less than half of that seen with the commercial product”. Besides, the “onset of decomposition (halfway point of mass loss)” value in series [2] (listed as seeded product) is listed as “took considerably longer”.
